Reference: PubChem BioAssay AID1963445 (Molecular Pharmacology Branch, DTP, NCI, 2024)
pIC50: −log10 of the molar value.

Test system: MCF7 complex spheroid growth, % test/control
Assay: Anticancer human tumor MCF7 cell line growth inhibition [Asc];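 also: spheroids exposed to compounds for 7 days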;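 as to viability, T/C: 100% = DMSO vehicle control wells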
Details: for pIC50: curve of first compound; for viability, T/C: stronger effect = lower value
Method in brief: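 Spheroid model: tumor line + HUVEC + hMSC. Single agents and combinations; top conc. at/near clinical Cmax (10 microM if undetermined), half-log dilutions. DMSO stocks at 800-fold test concentration.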

[1] = second compound 0.00316 µM, first compound 0.0316 µM
[2] = second compound 0.00316 µM, first compound 0.1 µM
[3] = second compound 0.00316 µM, first compound 0.316 µM
[4] = second compound 0.00316 µM, first compound 1 µM
[5] = second compound 0.01 µM, first compound 0.0316 µM
[6] = second compound 0.01 µM, first compound 0.1 µM
[7] = second compound 0.01 µM, first compound 0.316 µM
[8] = second compound 0.01 µM, first compound 1 µM
[9] = second compound 0.0316 µM, first compound 0.0316 µM
[10] = second compound 0.0316 µM, first compound 0.1 µM
[11] = second compound 0.0316 µM, first compound 0.316 µM
[12] = second compound 0.0316 µM, first compound 1 µM
[13] = second compound 0.1 µM, first compound 0.0316 µM
[14] = second compound 0.1 µM, first compound 0.1 µM
[15] = second compound 0.1 µM, first compound 0.316 µM
[16] = second compound 0.1 µM, first compound 1 µM
[17] = second compound 0.316 µM, first compound 0.0316 µM
[18] = second compound 0.316 µM, first compound 0.1 µM
[19] = second compound 0.316 µM, first compound 0.316 µM
[20] = second compound 0.316 µM, first compound 1 µM
[21] = second compound 1 µM, first compound 0.0316 µM
[22] = second compound 1 µM, first compound 0.1 µM
[23] = second compound 1 µM, first compound 0.316 µM
[24] = second compound 1 µM, first compound 1 µM

With `C=CC(=O)N1CCN(c2nc(=O)n(-c3c(C)ccnc3C(C)C)c3nc(-c4c(O)cccc4F)c(F)cc23)C(C)C1` (centres undefined) + CNC(C)C(=O)NC1CN(S(=O)(=O)c2cccc(S(=O)(=O)N3CCC4CCC(C(=O)NC(c5ccccc5)c5ccccc5)N4C(=O)C(NC(=O)C(C)NC)C3)c2)CCC2CCC(C(=O)NC(c3ccccc3)c3ccccc3)N2C1=O the pIC50 (second compound 0.00316 µM) was > 7.50, the pIC50 (second compound 0.01 µM) was > 7.50 and the pIC50 (second compound 0.0316 µM) was > 7.50. For the same molecule, the pIC50 (second compound 0.1 µM) was > 7.50, the pIC50 (second compound 0.316 µM) was > 7.50 and the pIC50 (second compound 1 µM) was > 7.50. For the same molecule, the viability, T/C [1] was 68.5%, the viability, T/C [2] was 29% and the viability, T/C [3] was 30.4%. The viability, T/C [4] was 54.8%, the viability, T/C (second compound 0.00316 µM, first compound 3.16 µM) was 60.5% and the viability, T/C (second compound 0.00316 µM, first compound 10 µM) was 57.9%. The viability, T/C [5] was 20.1%, the viability, T/C [6] was 15% and the viability, T/C [7] was 13.6%. It also gave a viability, T/C [8] of 16.9%, a viability, T/C (second compound 0.01 µM, first compound 3.16 µM) of 29.6% and a viability, T/C (second compound 0.01 µM, first compound 10 µM) of 46%. For the same molecule, the viability, T/C [9] was 12.7%, the viability, T/C [10] was 14.4% and the viability, T/C [11] was 12.5%. It also gave a viability, T/C [12] of 16.3%, a viability, T/C (second compound 0.0316 µM, first compound 3.16 µM) of 30.7% and a viability, T/C (second compound 0.0316 µM, first compound 10 µM) of 36.6%. The viability, T/C [13] was 14.1%, the viability, T/C [14] was 12% and the viability, T/C [15] was 16.8%. The viability, T/C [16] was 16.2%, the viability, T/C (second compound 0.1 µM, first compound 3.16 µM) was 20.2% and the viability, T/C (second compound 0.1 µM, first compound 10 µM) was 33%. For the same molecule, the viability, T/C [17] was 14.5%, the viability, T/C [18] was 13.5% and the viability, T/C [19] was 15.2%. For the same molecule, the viability, T/C [20] was 12.1%, the viability, T/C (second compound 0.316 µM, first compound 3.16 µM) was 18.6% and the viability, T/C (second compound 0.316 µM, first compound 10 µM) was 33.7%. It also gave a viability, T/C [21] of 13%, a viability, T/C [22] of 12.8% and a viability, T/C [23] of 11.7%. The viability, T/C [24] was 14.8%, the viability, T/C (second compound 1 µM, first compound 3.16 µM) was 16.5% and the viability, T/C (second compound 1 µM, first compound 10 µM) was 28.9%.
With `COc1c(OCCCN2CCOCC2)ccc2c3n(c(=NC(=O)c4cnc(N)nc4)nc12)CCN3` + CNC(C)C(=O)NC1CN(S(=O)(=O)c2cccc(S(=O)(=O)N3CCC4CCC(C(=O)NC(c5ccccc5)c5ccccc5)N4C(=O)C(NC(=O)C(C)NC)C3)c2)CCC2CCC(C(=O)NC(c3ccccc3)c3ccccc3)N2C1=O the pIC50 (second compound 0.00316 µM) was 8.49, the pIC50 (second compound 0.01 µM) was > 8.50 and the pIC50 (second compound 0.0316 µM) was > 8.50. For the same molecule, the pIC50 (second compound 0.1 µM) was > 8.50, the pIC50 (second compound 0.316 µM) was > 8.50 and the pIC50 (second compound 1 µM) was > 8.50. The viability, T/C (second compound 0.00316 µM, first compound 0.00316 µM) was 50.2%, the viability, T/C (second compound 0.00316 µM, first compound 0.01 µM) was 35.3% and the viability, T/C [1] was 14.7%. It also gave a viability, T/C [2] of 8.43%, a viability, T/C [3] of 8.17% and a viability, T/C [4] of 8.35%. For the same molecule, the viability, T/C (second compound 0.01 µM, first compound 0.00316 µM) was 10.9%, the viability, T/C (second compound 0.01 µM, first compound 0.01 µM) was 9.75% and the viability, T/C [5] was 9.42%. It also gave a viability, T/C [6] of 8.15%, a viability, T/C [7] of 6.06% and a viability, T/C [8] of 8.55%. It also gave a viability, T/C (second compound 0.0316 µM, first compound 0.00316 µM) of 12.6%, a viability, T/C (second compound 0.0316 µM, first compound 0.01 µM) of 10.9% and a viability, T/C [9] of 9.42%. For the same molecule, the viability, T/C [10] was 9.87%, the viability, T/C [11] was 7.86% and the viability, T/C [12] was 8.09%. It also gave a viability, T/C (second compound 0.1 µM, first compound 0.00316 µM) of 13.9%, a viability, T/C (second compound 0.1 µM, first compound 0.01 µM) of 11.1% and a viability, T/C [13] of 10.8%. The viability, T/C [14] was 12%, the viability, T/C [15] was 10.7% and the viability, T/C [16] was 8.86%. For the same molecule, the viability, T/C (second compound 0.316 µM, first compound 0.00316 µM) was 11.8%, the viability, T/C (second compound 0.316 µM, first compound 0.01 µM) was 9.96% and the viability, T/C [17] was 10.1%. The viability, T/C [18] was 10%, the viability, T/C [19] was 8.17% and the viability, T/C [20] was 8.52%. The viability, T/C (second compound 1 µM, first compound 0.00316 µM) was 11.3%, the viability, T/C (second compound 1 µM, first compound 0.01 µM) was 9.91% and the viability, T/C [21] was 13%. The viability, T/C [22] was 10.5%, the viability, T/C [23] was 9.23% and the viability, T/C [24] was 9.11%.
